Test results as given in paper PMC9007462 (Journal of Medicinal Chemistry, 2022).

Assays:
[1] = molecular target: T1, Human ALDH1A3 (Homo sapiens, UniProt P47895); test: ALDH1A3 inhibition, IC50, Ki and type of inhibition; type: biochemical; conditions: for IC50: 6 μM hexanal as substrate; for IC50 / Ki: mean ± SE; for type of inhibition ALDH1A3 / Ki: hexanal as substrate; for Ki: fit to competitive inhibition equation
T1 construct: made in house
T1 sequence (P47895 1-512): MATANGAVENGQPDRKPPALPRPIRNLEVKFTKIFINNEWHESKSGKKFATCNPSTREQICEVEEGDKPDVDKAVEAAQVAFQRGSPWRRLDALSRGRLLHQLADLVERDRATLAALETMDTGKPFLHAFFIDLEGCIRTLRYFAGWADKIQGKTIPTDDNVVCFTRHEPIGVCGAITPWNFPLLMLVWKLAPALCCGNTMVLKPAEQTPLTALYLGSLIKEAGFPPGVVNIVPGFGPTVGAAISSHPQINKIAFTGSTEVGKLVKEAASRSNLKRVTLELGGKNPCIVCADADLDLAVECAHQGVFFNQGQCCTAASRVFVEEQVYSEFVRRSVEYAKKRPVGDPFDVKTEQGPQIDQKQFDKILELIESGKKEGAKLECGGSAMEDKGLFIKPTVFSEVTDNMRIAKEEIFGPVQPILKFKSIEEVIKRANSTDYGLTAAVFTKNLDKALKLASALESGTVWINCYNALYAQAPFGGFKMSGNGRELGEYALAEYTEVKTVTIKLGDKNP
Procedure: Human ALDH1A1, ALDH1A3, and ALDH3A1 were cloned and recombinantly expressed from the pET-30 Xa/LIC vector. Protein purification was achieved by affinity chromatography on a nickel-charged chelating Sepharose Fast Flow 5-mL column (His Trap column, Cytiva), which specifically binds the protein due to its N-terminal (His)6 tag, using an ÄKTA FPLC system (Cytiva), as previously described.[55] Enzymes including the His tag were stored at −80 °C in 20 mM Tris/HCl and 0.5 M NaCl, pH 8.0, until use. Reaction buffers were as follows: ALDH1A1 was assayed in 50 mM HEPES, 0.5 mM EDTA, and 0.5 mM DTT, pH 8.0; […] Activity under standard conditions was measured fluorimetrically at 25 °C using a Cary Eclipse (Varian) fluorimeter to follow the purification procedure and to check the enzyme concentration before each kinetic experiment. […] In order to determine the IC50 values, reaction rates were determined at various concentrations of inhibitor at a fixed concentration of substrate. […] Values are expressed as the mean ± SE. […] The data of enzymatic activities at different inhibitor concentrations were fitted to the Michaelis–Menten equation to determine the values of Km and Vmax. Next, results were fitted to the equations for competitive, given by [drawing 3]; noncompetitive, given by [drawing 4]; uncompetitive, given by [drawing 5]; and mixed, given by [drawing 6] .[56] The type of inhibition was selected based on the lowest error value. Parameters were expressed as the mean ± SE.

[2] = tested on: PC3; test: MTT chemosensitivity assay, PC3; type: cell-based, human; conditions: ± SD, at least three independent experiments
Procedure: (§1) MTT (3-(4, 5-dimethyl-2-thiazolyl)-2, 5-diphenyl-2H-tetrazolium bromide) assay was used to determine cell viability.[64] Immortalized PCa cells (PC-3, Du-145, and LNCaP) were seeded in 96-well plates and allowed to adhere overnight at 37 °C, 5% CO2, and 100% humidity. […] After 96 h of exposure, 200 μL of MTT (Sigma) solution (0.5 mg/mL) was added to each well and incubated at 37 °C for 4 h. The formazan crystals were dissolved in DMSO (Sigma), and the absorbance was read using a microplate reader (Multiskan EX; Thermo Fisher Scientific) at 540 nm. Data analysis was performed using Microsoft Excel 2013 and GraphPad Prism software.

[3] = tested on: LNCaP; test: MTT chemosensitivity assay, LNCaP; type: cell-based, human; conditions: 96 h exposure, ± SD, at least three independent experiments
Procedure: as §1

[4] = tested on: DU145; test: MTT chemosensitivity assay, DU145; type: cell-based, human; conditions: ± SD, at least three independent experiments
Procedure: as §1

[5] = molecular target: T2, Human ALDH3A1 (Homo sapiens, UniProt P30838); test: DEAB analogues as substrates of ALDH3A1 (substrate activity and kinetics); type: biochemical
T2 construct: made in house
T2 sequence (P30838 1-453): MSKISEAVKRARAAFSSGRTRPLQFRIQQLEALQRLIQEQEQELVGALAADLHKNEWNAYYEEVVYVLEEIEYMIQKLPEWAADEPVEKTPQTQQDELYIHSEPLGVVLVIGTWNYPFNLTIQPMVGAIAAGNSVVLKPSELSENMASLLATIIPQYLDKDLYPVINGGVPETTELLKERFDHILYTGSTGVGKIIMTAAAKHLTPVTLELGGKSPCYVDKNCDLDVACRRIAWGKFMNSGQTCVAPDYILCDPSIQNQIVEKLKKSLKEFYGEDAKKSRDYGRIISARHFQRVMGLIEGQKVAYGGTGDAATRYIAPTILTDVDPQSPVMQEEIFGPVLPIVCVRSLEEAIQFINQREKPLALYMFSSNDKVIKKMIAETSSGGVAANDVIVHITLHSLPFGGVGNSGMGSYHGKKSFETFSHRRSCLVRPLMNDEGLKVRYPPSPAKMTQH
Procedure: (§2) Human ALDH1A1, ALDH1A3, and ALDH3A1 were cloned and recombinantly expressed from the pET-30 Xa/LIC vector. Protein purification was achieved by affinity chromatography on a nickel-charged chelating Sepharose Fast Flow 5-mL column (His Trap column, Cytiva), which specifically binds the protein due to its N-terminal (His)6 tag, using an ÄKTA FPLC system (Cytiva), as previously described.[55] Enzymes including the His tag were stored at −80 °C in 20 mM Tris/HCl and 0.5 M NaCl, pH 8.0, until use. Reaction buffers were as follows: ALDH1A1 was assayed in 50 mM HEPES, 0.5 mM EDTA, and 0.5 mM DTT, pH 8.0; ALDH1A3 was assayed in 50 mM HEPES, 30 mM MgCl2, and 5 mM DTT, pH 8.0; and ALDH3A1 was assayed in 50 mM Tris–HCl and 5 mM DTT, pH 8.0. Activity under standard conditions was measured fluorimetrically at 25 °C using a Cary Eclipse (Varian) fluorimeter to follow the purification procedure and to check the enzyme concentration before each kinetic experiment. The fluorescence of NADH was characterized at 460 nm with excitation at 340 nm, and 5 μM NAD(P)H was added as an internal standard to obtain the absolute reaction rates.[55] Standard activity was measured at saturating concentrations of substrate using 30 μM hexanal (ALDH1A1), 250 μM hexanal (ALDH1A3), or 250 μM 4-NBA (ALDH3A1). NAD^+ was 500 μM for ALDH1A1 and ALDH1A3, and NADP^+ was 1 mM for ALDH3A1.
According to their structure with a carbonyl group, compounds were tested for their substrate properties against ALDH1A1, ALDH1A3, and ALDH3A1. […] Results are expressed as the percentage of activity at 10 μM versus the activity at 10 μM of their standard substrate (hexanal or 4-NBA). Values are expressed as the mean ± SE.
To calculate the Km value of compound 18 as a substrate for ALDH3A1, several concentrations of compound 18 were used. Experimental values were fitted to the adaptation of the Michaelis–Menten equation for substrate inhibition [drawing 1] and shown as the mean ± SE.

[6] = molecular target: T3, Human ALDH1A1 (Homo sapiens, UniProt P00352); test: Inhibition screening, single point at 10 μM, ALDH1A1; type: biochemical; conditions: 10 μM compound; 5 μM hexanal (Figure S1)
T3 construct: made in house
T3 sequence (P00352 1-501): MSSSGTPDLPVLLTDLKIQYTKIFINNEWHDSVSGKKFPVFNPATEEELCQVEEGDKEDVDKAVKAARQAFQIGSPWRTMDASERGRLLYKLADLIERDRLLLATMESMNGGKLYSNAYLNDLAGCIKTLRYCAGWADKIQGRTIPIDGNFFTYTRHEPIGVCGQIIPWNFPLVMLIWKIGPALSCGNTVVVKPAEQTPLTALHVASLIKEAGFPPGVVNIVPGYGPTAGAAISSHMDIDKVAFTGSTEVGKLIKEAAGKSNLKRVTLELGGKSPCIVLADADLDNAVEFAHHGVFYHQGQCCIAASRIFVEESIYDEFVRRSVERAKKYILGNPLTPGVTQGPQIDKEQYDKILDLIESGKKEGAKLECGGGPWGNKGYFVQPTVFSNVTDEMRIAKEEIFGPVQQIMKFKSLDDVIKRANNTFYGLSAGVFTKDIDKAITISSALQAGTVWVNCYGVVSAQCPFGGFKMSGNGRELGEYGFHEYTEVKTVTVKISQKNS
Procedure: as §2
All compounds tested were dissolved in DMSO and assayed at a final concentration of 1% (v/v) DMSO. […] For the initial screening, the enzymatic activity was measured in 96-well plates (final volume of 200 μL) in a Victor 3 Multilabel Plate Reader (Perkin Elmer), by monitoring the fluorescence of the NAD(P)H produced during the reaction (excitation at 340 nm and emission at 460 nm). Alternatively, the enzymatic activity was measured in a Varian Cary 400 UV–vis spectrophotometer, by monitoring the increase in the absorbance of NAD(P)H at 340 nm (ε = 6.22 mM^–1·cm^–1) or in a Cary Eclipse Varian fluorimeter, as described above. […] For ALDH1A1, 5 μM hexanal (Sigma) was used. For ALDH1A3, 10 and 250 μM hexanal (Sigma) were used. For ALDH3A1, 4-NBA (Sigma) was used at 31 and 250 μM. All substrates were prepared in the corresponding assay buffer at a concentration of 2 mM and further diluted to reach the final concentrations required per experiment. The concentration of the enzyme was kept from 50- to 100-fold lower than that of the substrate for all enzymatic assays.

[7] = molecular target: T2, Human ALDH3A1; test: ALDH3A1 inhibition, IC50, Ki and type of inhibition; type: biochemical; conditions: 31 μM 4-NBA as substrate; mean ± SE
Procedure: as §2
In order to determine the IC50 values, reaction rates were determined at various concentrations of inhibitor at a fixed concentration of substrate. As substrates for ALDH1A1, ALDH1A3, and ALDH3A1, 5 μM hexanal, 6 μM hexanal, and 31 μM 4-NBA, respectively, were used. The IC50 values were calculated by nonlinear fitting of the obtained data to a sigmoidal plot using GraFit 5.0 (Erithacus software), with the following 4-parameter equation [drawing 2] , where y is the specific activity, x is the inhibitor concentration, background is the minimum y value, range is the fitted uninhibited value minus the background, and s is the slope factor. Values are expressed as the mean ± SE.
Activity assays to determine the type of inhibition and Ki value were performed using various substrate and inhibitor concentrations maintaining the same conditions as for the IC50 experiments and using GraFit 5.0 for data processing. The data of enzymatic activities at different inhibitor concentrations were fitted to the Michaelis–Menten equation to determine the values of Km and Vmax. Next, results were fitted to the equations for competitive, given by [drawing 3]; noncompetitive, given by [drawing 4]; uncompetitive, given by [drawing 5]; and mixed, given by [drawing 6] .[56] The type of inhibition was selected based on the lowest error value. Parameters were expressed as the mean ± SE.

[8] = Homo sapiens, PC-3, 96 h exposure
[9] = Homo sapiens, DU-145, 96 h exposure

| IC50 [1] [µM] | IC50 [2, 8] [µM] | IC50 ([3]; Homo sapiens, LNCaP) [µM] | IC50 [4, 9] [µM] | Compound | other results |
| --- | --- | --- | --- | --- | --- |
| 0.3 ± 0.07 | 123 ± 29 | 61 ± 14 | 106 ± 13 | Cc1cc(C=O)ccc1N1CCCCC1 [Compound 15, 3-Methyl-4-(piperidin-1-yl)benzaldehyde] | type of inhibition ALDH1A3 [1]: competitive; Ki [1]: < 1 µM |
| 0.26 ± 0.01 | > 200 | > 200 | > 200 | CC(C)Oc1ccc(C=O)cc1 [Compound 16, 4-Isopropoxybenzaldehyde] | type of inhibition ALDH1A3 [1]: competitive; Ki [1]: < 1 µM; ALDH3A1 substrate activity ([5]; 10 μM compound as substrate, relative to activity with 10 μM 4-NBA (Figure S2)): good ALDH3A1 substrate |
| – | – | – | – | 4-(Dipropylamino)-3-methoxybenzaldehyde [Compound 17] | IC50 ([2]; 96 h exposure): 106 ± 25 µM; IC50 [3]: 61 ± 18 µM; IC50 ([4]; 96 h exposure): 103 ± 4 µM |
| – | 196 ± 4 | 82 ± 10 | 155 ± 32 | O=Cc1ccc(N2CCOCC2)c(Br)c1 [Compound 22, 3-Bromo-4-morpholinobenzaldehyde] | – |
| – | – | – | – | O=Cc1ccc(N2CCCC2)cc1 [Compound 4, 4-(Pyrrolidin-1-yl)benzaldehyde] | remaining ALDH1A1 activity [6]: 10% |
| – | – | – | – | O=Cc1ccc([N+](=O)[O-])cc1 [Compound 4-NBA, 4-Nitrobenzaldehyde, reference compound] | Km ([5]; mean ± SE): 31 ± 4.9 µM; kcat as ALDH3A1 substrate ([5]; mean ± SE): 359 ± 14 min^–1; Km fold higher than compound 18 (ALDH3A1 substrate) ([5]; ratio of Km values): 10 fold; turnover number (kcat) fold higher than compound 18 (ALDH3A1) ([5]; ratio of kcat values): 26 fold |
| – | – | – | – | 4-(Dipropylamino)-2-methoxybenzaldehyde [Compound 38] | IC50 ([2]; 96 h exposure): 75 ± 10 µM; IC50 [3]: 50 ± 3 µM; IC50 ([4]; 96 h exposure): 71 ± 11 µM |
| 0.27 ± 0.03 | – | – | – | O=Cc1ccc(N2CCCC2)c([N+](=O)[O-])c1 [Compound 34, 3-Nitro-4-(pyrrolidin-1-yl)benzaldehyde] | – |
| – | 84 ± 6 | 46 ± 10 | 84 ± 12 | O=Cc1ccc(N2CCCCC2)c(Br)c1 [Compound 23, 3-Bromo-4-(piperidin-1-yl)benzaldehyde] | – |
| – | 130 ± 9 | 37 ± 1.4 | 110 ± 3 | O=Cc1ccc(N2CCCCC2)c(Cl)c1 [Compound 8, 3-Chloro-4-(piperidin-1-yl)benzaldehyde] | – |
| – | 172 ± 30 | 137 ± 14 | 133 ± 11 | O=Cc1ccc(-n2ccnc2)cc1 [Compound 6, 4-(1H-Imidazole-1-yl)benzaldehyde] | – |
| 2.37 ± 0.19 | – | – | – | O=Cc1ccc(N2CCOCC2)c(Cl)c1 [Compound 9, 3-Chloro-4-morpholinobenzaldehyde] | IC50 [7]: 64.1 ± 6.7 µM |

| Compound | IC50 [1] [µM] | IC50 [2, 8] [µM] | IC50 ([3]; Homo sapiens, LNCaP) [µM] | IC50 [4, 9] [µM] | other results |
| --- | --- | --- | --- | --- | --- |
| CN1CCN(c2ccc(C=O)cc2Br)CC1 [Compound 21, 3-Bromo-4-(4-methylpiperazin-1-yl)benzaldehyde] | – | > 200 | 179 ± 14 | 187 ± 14 | – |
